# B1: CD133 aptamer-Dox conjugate (mixed)
# RNA: CGCGCGCCGCACGUAUACUAUGCGGCGCGCG
# modifications: DNA stem with 5-methyl-dC; 2'-F C and U in RNA loop; 3' inverted dT; doxorubicin intercalated in stem
# B2: CD133 RNA/DNA hybrid aptamer, unconjugated (mixed)
# RNA: B1 RNA
# modifications: DNA stem with 5-methyl-dC (all stem C except as printed); 2'-F C and U in RNA loop ACGUAUACUAU; 3' inverted dT
# Tests used:
# [1] = biological target: T1, CD133 expressed on HT29 cells (Homo sapiens, UniProt O43490); test: Equilibrium dissociation constant by flow cytometry on CD133 positive HT29 cells; format: binding; conditions: Cy5 labelled
# T1 construct: host or cells: HT-29 human colorectal cancer cells
# T1 sequence (O43490 20-865): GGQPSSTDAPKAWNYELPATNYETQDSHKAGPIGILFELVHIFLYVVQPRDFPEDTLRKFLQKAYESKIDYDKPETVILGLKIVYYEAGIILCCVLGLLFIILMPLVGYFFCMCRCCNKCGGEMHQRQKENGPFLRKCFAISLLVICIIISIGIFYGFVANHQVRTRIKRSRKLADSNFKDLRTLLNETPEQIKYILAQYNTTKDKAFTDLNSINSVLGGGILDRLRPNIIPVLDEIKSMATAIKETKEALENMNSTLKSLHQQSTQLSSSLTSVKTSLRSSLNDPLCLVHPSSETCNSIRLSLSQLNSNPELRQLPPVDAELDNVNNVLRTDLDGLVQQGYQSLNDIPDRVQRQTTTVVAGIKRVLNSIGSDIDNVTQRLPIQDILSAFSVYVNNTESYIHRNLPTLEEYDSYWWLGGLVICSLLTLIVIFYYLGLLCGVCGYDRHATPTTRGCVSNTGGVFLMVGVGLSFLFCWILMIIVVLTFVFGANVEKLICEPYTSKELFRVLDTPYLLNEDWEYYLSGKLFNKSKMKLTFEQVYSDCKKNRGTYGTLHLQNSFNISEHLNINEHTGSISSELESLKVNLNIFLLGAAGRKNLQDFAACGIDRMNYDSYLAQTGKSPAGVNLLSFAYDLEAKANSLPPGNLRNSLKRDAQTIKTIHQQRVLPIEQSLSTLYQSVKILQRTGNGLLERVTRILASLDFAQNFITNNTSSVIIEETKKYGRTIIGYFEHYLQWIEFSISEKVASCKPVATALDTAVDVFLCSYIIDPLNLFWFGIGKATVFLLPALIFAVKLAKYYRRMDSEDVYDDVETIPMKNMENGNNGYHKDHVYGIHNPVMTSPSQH
# Protocol: (§1) To minimize the non-specific binding, 1×10^5 HT29 or HEK293T cells were first incubated with blocking buffer (PBS with 10% FCS, 1% BSA and 1% tRNA) for 20 min. Cells were then washed twice with washing buffer (PBS containing 5% FBS and 2.5 mM MgCl2) and incubated on ice for 1 h with either CD133 aptamer, negative-control aptamer, CD133 aptamer-Dox conjugate or negative-control aptamer-Dox conjugate, all labelled with Cy5 in conjugation buffer (50 mM NaCl, and 2.5 mM MgCl2).
# Prior to flow cytometric analysis, cells were again washed twice with washing buffer and then suspended in 150 μl washing buffer. Data was then collected using the flow cytometer (FACS CANTOII, Becton Dickerson) to measure the fluorescence intensity of the aptamer and the binding affinity was determined by normalising the fluorescence intensity with the fluorescent background from that of the negative-control aptamer and then derived using Graph Pad Prism software.
# HT29 cells [2] = test: Internalisation of aptamer-Dox conjugate by confocal microscopy; format: cell-based, human
# Protocol: Both HT29 and HEK293T were seeded at […] cells per well in 8-chamber slide for 24 h in preparation for confocal microscopy. Cells were incubated with blocking buffer (PBS with 10% FCS, 1 mg/mL BSA, 0.1 mg/mL tRNA) for 20 min, followed by washing twice with washing buffer (PBS containing 5% FBS, 2.5 mM MgCl2, and 5 mM NaCl) prior to incubation with 200 nM aptamer, negative-control aptamer, aptamer-Dox conjugate or […] Bisbenzimide Hoechst 33342 (3 mg/ml) (Sigma)) was added to the cells during the final 15 min of incubation. The aptamer solution was removed and the cells were washed three times for 5 min each in PBS prior to visualisation using a FluoView FV10i laser scanning confocal microscope (Olympus).
# HT29 cells [3] = test: Tumoursphere formation assay (CSC frequency analysis in vitro); format: cell-based, human; conditions: HT29, 96-well, lower seeding dose (10 or 5 cells/well), versus PBS control
# Protocol: Cells were harvested at 80% confluence with trypsin digestion and resuspended as single cells in DMEM/F12 serum-free media following centrifugation (1000×g for 5 min). Cells were plated into 96-well ultralow attachment plates at a density of 5, 10, 50, 100, 500, and 1000 cells per well, or at 4000 cells /well in 6-well ultralow attachment plates for tumoursphere formation. Three experiment groups were used: tumoursphere medium control, free DOX treatment (1, 1.5 and 2 μM) and aptamer-Dox treatment (1, 1.5 and 2 μM equivalent to the same concentration of free DOX). After incubation for 24 h at 37° C. supernatant was removed and replaced with equal volume of fresh CSC medium. A tumoursphere was defined as a cell aggregate with a diameter of over 50 μm with well defined borders. Tumoursphere formation frequency and size were recorded 3 days after seeding. The frequency of CSCs was calculated using the ELDA website (http://bioinf.wehi.edu.au/software/elda/index.html. The tumoursphere formation frequency in 6-well incubation was calculated according to the formula F=Numbers of forming tumourspheres/Number of single cells plated (F is the tumoursphere formation frequency).
# CD133 (prominin-1) [4] = biological target: T2, CD133 (prominin-1) (UniProt O43490 O43490:20-865); test: flow; HT29 cells, 50 mM NaCl, 2.5 mM MgCl2, on ice 1 h; CD133-negative HEK293T gave KD >1000 nM; conditions: tags: native CD133 on HT-29 colorectal cancer cells (ATCC); label: Cy5; hairpin with 10-bp DNA stem
# T2 sequence: T1 sequence (O43490 20-865)
# Protocol: as §1, with “Determination of the Equilibrium Dissociation Between the Aptamer-Dox Conjugate and its Target Cells To” for “To”
# (§2) To determine whether the conjugation of DOX impedes binding affinity and specificity of the aptamer to CD133 the fluorescently labelled Cy5 aptamer-Dox conjugate was incubated with HT29 colorectal cancer cells and the equilibrium dissociation constant (K_D) was determined via flow cytometric analysis (FIG. 6).
# Two cell lines, HT29 and HEK293T, were chosen for the study. […] To ascertain that CD133 aptamer binds to CD133 via specific molecular interaction rather than a non-specific binding between a nucleic acid and CD133, the experiments were repeated with a negative control aptamer-Dox conjugate (FIG. 6B). This negative control aptamer has the identical nucleic acid sequence as the positive aptamer with the exception of a 2'-O-methyl modification instead of a 2'-fluoro chemical modification.
# CD133 (prominin-1) [5] = biological target: T2, CD133 (prominin-1); test: flow; HT29 cells, 50 mM NaCl, 2.5 mM MgCl2, on ice 1 h; conditions: tags: native CD133 on HT-29 colorectal cancer cells (ATCC); label: Cy5; hairpin with 10-bp DNA stem
# Protocol: as §1, with “Determination of the Equilibrium Dissociation Between the Aptamer-Dox Conjugate and its Target Cells To” for “To”
# as §2
molecule,measurement,setting,value
"5′-mCGmCGmCGmCmCGmCA(2′fC)G(2′-fU)A(2′fU)A(2′fC)(2′fU)A(2′fU)GmCGGmCGmCGmCG-(inv dT)-3′ (SEQ ID NO:5) (CGCGCGCCGCACGUAUACUAUGCGGCGCGCGT; 2'-F, 5-methyl-dC modifications; 3' inverted dT; a synthetic aptamer against CD133; modified_base (1)..(1) 5-methyl deoxycytidine; modified_base (3)..(3) 5-methyl deoxycytidine; modified_base (5)..(5) 5-methyl deoxycytidine; modified_base (7)..(8) 5-methyl deoxycytidine; modified_base (10)..(10) 5-methyl deoxycytidine; modified_base (12)..(12) 2′-fluoro 5-methyl deoxycytidine; modified_base (14)..(14) 2′-fluoro deoxyuridine; modified_base (16)..) [CD133 aptamer, hybrid RNA/DNA CD133 aptamer; RNA stem replaced with a 10-bp DNA stem containing 5′methyl-dC]",Kd,[1],0.0848 µM
same,internalisation (Cy5 aptamer),HT29 cells [2],successfully internalised
"COc1cccc2c1C(=O)c1c(O)c3c(c(O)c1C2=O)C[C@@](O)(C(=O)CO)C[C@@H]3O[C@H]1C[C@H](N)[C@H](O)[C@H](C)O1 [free DOX, doxorubicin]",frequency of tumoursphere formation,HT29 cells [3],no significant decrease
B1,Kd,CD133 (prominin-1) [4],0.0239 µM
B2,Kd,CD133 (prominin-1) [5],0.0848 µM
